Here are results for two molecules from PMC7181277, “Synthesis and Biological Evaluation of New Antitubulin Agents Containing 2-(3′,4′,5′-trimethoxyanilino)-3,6-disubstituted-4,5,6,7-tetrahydrothieno[2,3-c]pyridine Scaffold” (Molecules, 2020).

Like-named read-outs stand apart in the source and are kept apart here.

Test [1] concerns murine leukemia (L1210) cells. In words: In vitro antiproliferative assay, L1210 cells. Type of test: cell-based. As to conditions: Mus musculus; murine leukemia L1210, 72 h, cell count; mean ± SE. The text has this:
(§1) In Table 1 we report the in vitro antiproliferative activity of 2-(3′,4′,5′-trimethoxyanilino)-4,5,6,7-tetrahydrothieno[2,3-c]pyridine derivatives 3a–3j and the related 4,5,6,7-tetrahydrobenzo[b]thiophenes 3k–3p against a panel of three cell lines, which were derived from different cancer types, including murine leukemia (L1210), human T-lymphoblastoid leukemia (CEM), and human cervix carcinoma (HeLa) cells.
(§2) Murine leukemia L1210, human T-lymphocyte leukemia CEM, human cervix carcinoma (HeLa), and human chronic myelogenous leukemia K562 cells (3–5 × 10^4 cells) and a serial (5-fold) dilution of the test compounds were added to a 96-well microtiter plate. The cells were incubated for 72 h at 37 °C in a humidified 5% CO2 atmosphere. At the end of the incubation period, the cells were counted in a Coulter Counter (Coulter Electronics Ltd., Harpenden Herts, United Kingdom). The IC50 (50% inhibitory concentration) was defined as the concentration of compound that inhibited cell proliferation by 50%. The IC50 values represent the average (± standard deviation) of three independent experiments. Human peripheral blood mononuclear cells (PBMC) were obtained from healthy donors by centrifugation with Ficoll-Paque Plus (GE Healthcare Bio-Sciences AB, Uppsala).

The test system of test [2] is human T-lymphoblastoid leukemia (CEM) cells. In words: In vitro antiproliferative assay, CEM cells. Type of test: cell-based. As to conditions: CCRF-CEM; human T-lymphocyte CEM, 72 h, cell count; mean ± SE. How it is done:
as §2, with “The IC50 (50% inhibitory concentration) was defined as the concentration of compound that inhibited cell proliferation by 50%.” left out

For test [3], the system named is human cervix carcinoma (HeLa) cells. The test is described as follows: In vitro antiproliferative assay, HeLa cells. Type of test: cell-based. Conditions: for fold more active than 2b against HeLa cells: relative to 2b (IC50: 41 μM); for IC50: human cervix carcinoma HeLa, 72 h, cell count, mean ± SE. How it is done:
as §2, with “The IC50 (50% inhibitory concentration) was defined as the concentration of compound that inhibited cell proliferation by 50%.” left out

In test [4] the test system is human chronic myelogenous leukemia K562 cells. The test is described as follows: In vitro antiproliferative assay, K562 cells. Type of test: cell-based. As to conditions: 72 h; for IC50: Homo sapiens. How it is done: These values are 1.5-fold lower than those obtained with the 6-methoxycarbonyl derivative 3a against L1210 and HeLa cells, while both compounds were equipotent against CEM cells.
as §2

In test [5] the test system is human peripheral blood mononuclear cells (PBMC). The test is described as follows: Antiproliferative activity in normal human cells (PBMC). The test is classed as cell-based. As to conditions: 72 h. How it is done: In order to investigate the selective antiproliferative activities of derivatives 3a and 3b in normal human cells, both these molecules were tested in vitro against human peripheral blood mononuclear cells (PBMC) isolated from healthy donors.
as §2

The next test has as its system Bovine brain tubulin. The test is described as follows: Inhibition of tubulin polymerization (turbidimetric assembly). The test is classed as biochemical. As to conditions: tubulin at 10 μM, 20 min incubation; read-out: Tubulin assembly IC50 ± SD. How it is done:
(§3) Bovine brain tubulin was purified as described previously. To evaluate the effect of the compounds on tubulin assembly in vitro [59], varying concentrations were preincubated with 10 μM tubulin in 0.8 M glutamate buffer at 30 °C and then cooled to 0 °C. After addition of GTP, the mixtures were transferred to 0 °C cuvettes in a recording spectrophotometer and warmed to 30 °C, and the assembly of tubulin was observed turbidimetrically. […] The ability of the test compounds to inhibit colchicine binding to tubulin was measured as described earlier, except that the reaction mixtures contained 1 μM tubulin, 5 μM of [^3H]colchicine, and test compounds 3a or 3b.

For test [6], the system named is tubulin (colchicine site). In words: Inhibition of [3H]colchicine binding to tubulin. More on the design: species or system Bovine. Conditions: tubulin 1 μM, colchicine 5 μM, compound 5 μM. The method, then: as §3
In test [7] the test system is K562 cells. In words: Cell cycle distribution by flow cytometry (Muse Cell Analyzer). The test is classed as cell-based, human. Conditions: K562, 72 h, three experiments, average ± S.D.; for percentage of G2/M-phase cells at IC50: at IC50 (3a 0.75 μM, 3b 0.70 μM); for percentage of G2/M-phase cells at IC75: at IC75 (3a 1.0 μM, 3b 0.90 μM). The method, then:
The cells were cultured for 72 h in the presence of two different concentrations (IC50 and IC75) for each tested derivative and the obtained results were compared with non-treated K562 cells as control.
Human leukemia K562 cells were treated with compounds 3a or 3b, and analysis of the distribution of the cells through the cell cycle was performed with the Muse Cell Analyzer instrument (Millipore Corporation, Billerica, MA, USA). Assay and cell counting were performed according to the instructions supplied by the manufacturer. Samples were collected after the treatment and washed in PBS. For analysis, 5 × 10^5 cells were resuspended in 200 μL of Muse Cell Cycle Reagent, incubated for 30 min at room temperature, and the cell suspension was transferred to a 1.5 mL microcentrifuge tube prior to analysis. Cells were analyzed by fluorescence-activated cell sorting analysis using a Muse Cell Analyzer.
(In general: Flow cytometry measures light scatter and fluorescence of single cells or particles in a stream.)

In test [8] the test system is K562 cells. The test is described as follows: Apoptosis assay (Muse Annexin V & Dead Cell Kit). The test is classed as cell-based, human. Conditions: K562, 72 h, representative experiment; for cells undergoing apoptosis (total) at IC50: at IC50 (3a 0.75 μM, 3b 0.70 μM); for cells undergoing apoptosis (total) at IC75: at IC75 (3a 1.00 μM, 3b 0.90 μM). The text has this: This phospholipid flips from the inner to the outer leaflet of the plasma membrane during apoptosis. Positive staining with annexin-V correlates with the loss of plasma membrane polarity, but this staining precedes the complete loss of membrane integrity that accompanies the later stages of cell death, resulting from either apoptosis or necrosis. In contrast, PI can only enter cells after complete loss of membrane integrity. Thus, dual staining for annexin-V and with PI permits discrimination between unaffected cells (annexin-V^−/PI^−), early apoptotic cells (annexin-V^+/PI^−), late apoptotic cells (annexin-V^+/PI^+), and necrotic cells (annexin-V^−/PI^+).
Apoptosis assays on K562 cells were performed with the Muse Cell Analyzer instrument, and assays were performed according to the instructions supplied by the manufacturer. The Muse Annexin V & Dead Cell Kit employs annexin V to detect phosphatidyl serine (PS) on the external membrane of apoptotic cells. A fluorescent DNA intercalator (7-ADD: 7-aminoactinomycin D) is also used as an indicator of cell membrane integrity. From live, healthy cells, as well as early apoptotic cells, 7-ADD is excluded while it is able to bind DNA in cells in late apoptosis and in dead cells. Cells were washed with sterile PBS 1X, suspended, and diluted (1:2) with the Muse Annexin V & Dead Cell reagent. Samples were gently mixed and incubated at room temperature, protected from the light for 15 min. Samples were analyzed using a Muse Cell Analyzer, and data from prepared samples were acquired and recorded utilizing the Annexin V and Dead Cell Software Module (Millipore).

Test [9] has as its system L1210, CEM, and HeLa cells. The test is described as follows: Antiproliferative activity, panel of three cancer cell lines. Type of test: cell-based. Conditions: for IC50: span over L1210, CEM and HeLa, read-out: IC50 values against the panel of three cancer cell lines.
Source text: as §1, §2

[10] abbreviates: phytohemagglutin (PHA)-stimulated PBMC, read-out: IC50 PBMC, PHA-stimulated.
The mark [11] stands for this setting: resting PBMC from healthy donors, read-out: IC50 PBMC, resting.

As usually defined, the IC50 is the concentration at which inhibition is half-maximal. With `COC(=O)N1CCc2c(sc(Nc3cc(OC)c(OC)c(OC)c3)c2C#N)C1` [Compound 3a, Methyl 3-cyano-2-((3,4,5-trimethoxyphenyl)amino)-4,5-dihydrothieno[2,3-c]pyridine-6(7H)-carboxylate], the IC50 in test [1] is 4700 ± 400 nM; in [2] it was 2900 ± 2100 nM; in test [3] it was 1900 ± 1200 nM; in test [4], 750 nM; in [5] (setting [10]), greater than 20000 nM; in [5] (setting [11]), greater than 20000 nM. The IC50 was 3800 ± 50 nM with Bovine brain tubulin and 1900 to 4700 nM in [9]. In addition, the “fold more active than 2b against HeLa cells” value in test [3] is given as 40 fold. The “IC75 K562” value in [4] came out at 1000 nM. The “Colchicine binding % ± SD (inhibition of [3H]colchicine binding)” value in [6] stood at 29 ± 1%. Moreover, the “percentage of G2/M-phase cells at IC50” value in the test with K562 cells [7] was 33.6% ± 1.1%. The “percentage of G2/M-phase cells at IC75” value in the test on K562 cells [7] is reported as 34.9% ± 1.3%. Moreover, the “cells undergoing apoptosis (total) at IC50” value with K562 cells [8] worked out at 29.64%. In the test on K562 cells [8], the “cells undergoing apoptosis (total) at IC75” value is reported as 46.68%.

As to `CCOC(=O)N1CCc2c(sc(Nc3cc(OC)c(OC)c(OC)c3)c2C#N)C1` [Compound 3b, Ethyl 3-cyano-2-((3,4,5-trimethoxyphenyl)amino)-4,5-dihydrothieno[2,3-c]pyridine-6(7H)-carboxylate], the IC50 is 2800 ± 2300 nM in [1]; 2300 ± 1700 nM in [2]; 1100 nM in [3]; 700 nM in test [4]; greater than 20000 nM in test [5] (setting [10]); greater than 20000 nM in test [5] (setting [11]). Further, the IC50 in the test on Bovine brain tubulin is 3400 ± 50 nM; in [9] it was 1100 to 2800 nM. Moreover, in test [3], the “fold more active than 2b against HeLa cells” value was determined as 20 fold. For the same molecule, in [4], the “IC75 K562” value came to 900 nM. Further, in [6], the “Colchicine binding % ± SD (inhibition of [3H]colchicine binding)” value was determined as 31 ± 1%. For the same molecule, the “percentage of G2/M-phase cells at IC50” value in the test on K562 cells [7] is 30.3% ± 1.3%. For the same molecule, the “percentage of G2/M-phase cells at IC75” value in the test with K562 cells [7] was 33.5% ± 0.6%. Further, the “cells undergoing apoptosis (total) at IC50” value in the test with K562 cells [8] came out at 32.87%. Also, in the test on K562 cells [8], the “cells undergoing apoptosis (total) at IC75” value was 56.01%. The “fold lower IC50 than 3a” value in test [9] (against L1210 and HeLa cells) is 1.5 fold.
